“Also recorded” adds a separate entry of the source.
Columns and labels:
Set-up in all cases: species or system mice
[1] = system: Early (HBC×34) and metastatic (BB3RC31) BC estrogen-dependent patient-derived xenograft tumors; assay: 14 day in vivo window treatment of ER+ PDX tumors: tumor growth, Ki67, ER, PR; settings: for proliferation marker Ki67 / tumor growth: 14 days, tamoxifen 10 mg/kg/day oral, fulvestrant 200 mg/kg/week s.c., RO4929097 3 mg/kg/day oral; for ER and PR protein expression levels: PDX tumors, 14 days in vivo, immunohistochemistry
Protocol: (§1) Early (HBC×34) and metastatic (BB3RC31) BC estrogen-dependent PDXs were administered with 8 ug/ml of 17-beta estradiol in drinking water at all times and were treated with drugs when tumors reached 200-300 mm^3. Experiments were performed using PDX tumors between passages 5 and 8. Animal weight and tumor size was measured bi-dimensionally using callipers twice a week. The HBC×34 model was kindly provided by Dr Elisabetta Marangoni from Institute Curie, Paris (Cottu et al., 2012).
(§2) Tamoxifen citrate (Sigma, T9262, 10 mg/kg/day) and RO4929097 (Cellagen Technology, 3 mg/kg/day) were administered by oral gavage (0.1 ml/dose) on a five day from seven basis (weekends excluded) for fourteen days. Tamoxifen citrate and RO4929097 were prepared in 1% carboxymethylcellulose (Sigma, C9481) dissolved in distilled water. Fulvestrant (kindly provided by Astrazeneca, 200 mg/kg/week) was administered by subcutaneous injection (0.1 ml/dose) on a weekly basis for fourteen days. The HBC×22 and HBC×34 tamoxifen-resistant PDXs have been established by our collaborators in the Curie Institute (Cottu el al, 2014) and were treated for fourteen days in the presence or absence of the gamma-secretase inhibitor RO4929097 (10 mg/kg/day, oral gavage). Xenografts were collected in ice cold DMEM media for live cell assays, histological analysis and RNA and protein extraction. Patient-derived xenograft single cell suspension was obtained using a collagenase-hyaluronidase mixture for digestion (Stem Cell Technologies).
Tissue microarrays (TMAs) were constructed from all formalin fixed and paraffin embedded tissue. 3×1 mm cores were taken per tissue block, and TMAs were cut into 3 μm thick sections and analysed by immunohistochemistry. Antibodies utilised were anti-ERα (Thermo, SP1), anti-PgR (Dako, M3569), anti-Ki67 (Dako, M7240), anti-HER2 (Vector Laboratories, VP-C380), anti-Hes1 (Abcam, ab108937) and anti-ALDH1 (BD Biosciences, 611195). Antigen retrieval was performed either using Target Retrieval Solution pH9 (Dako S2367, for ER, PR, Ki67 and ALDH1), Target Retrieval Solution pH6 (Dako S1699, for Hes1) or in 10 mM Citrate buffer (for HER2) in a […] water bath for 25 mins. All antibodies were detected using Dako EnVision Detection System Peroxidase/DAB, Rabbit/Mouse (Dako, K5007) and sections were counterstained with haematoxylin. Staining was quantified using Definiens Tissue Studio software. The percentage of positive epithelial cells was scored on 3 cores per tissue sample. For ER immunocytochemistry, approximately 50.000 cells were FACS sorted and then cytospun for 5 min at 80 G on poly-lysine coated slides. Cells were fixed with 4% paraformaldehyde (5 min), permeabilised with acetone (4 min) and methanol (2 min), and then blocked for 10 min with Peroxidase Blocking Reagent (Dako, S2001) and further 10 min with 3% goat serum before incubation with primary antibody. ER was then detected as described above for immunohistochemistry.

[2] = system: Early (HBC×34) and metastatic (BB3RC31) PDX tumors; assay: BCSC activity (MFE, ALDEFLUOR) of ER+ PDX tumors treated in vivo; settings: 14 days; for BCSC activity measured by MFE and ALDH enzymatic activity: tamoxifen 10 mg/kg/day oral, fulvestrant 200 mg/kg/week s.c.
Protocol: as §1
as §2, with “Xenografts were collected in ice cold DMEM media for live cell assays, histological analysis and RNA and protein extraction. Patient-derived xenograft single cell suspension was obtained using a collagenase-hyaluronidase mixture for digestion (Stem Cell Technologies).” left out
Single cell suspensions of freshly isolated ER+ primary and metastatic patient-derived samples were cultured for 7-9 days (primary cells) in mammosphere colony assays in the presence of ethanol, 10^−6 M 4-hydroxy-tamoxifen or 10^−7 M fulvestrant. […] Mammosphere formation efficiency (MFE) was calculated by dividing the number of mammospheres formed (≧50 μm) by the original number of single cells seeded (500 cells/cm^2 for primary cells and 200 cells/cm^2 for cell lines) and is expressed as fold change normalised to control or as the mean percentage of MFE (Shaw et al., 2012).
Dissociated single cells were suspended in Aldefluor assay buffer containing an ALDH substrate, bodipyaminoacetaldehyde (BAAA) at […], and incubated for 45 min at 37° C. […] Data were acquired on a LSR II (BD) flow cytometer and analysed using the BD FACSDiva™ software.

[3] = system: metastatic (BB3RC31) PDX cells; assay: Secondary tumor formation of cells from PDX tumors treated in vivo; settings: 90 days post-implantation; for tumor-initiating capacity in secondary mouse hosts: cells from PDX tumors treated in vivo
Protocol: as §2
(§3) To determine tumor initiation capacity of MCF-7 cells or metastatic (BB3RC31) PDX cells treated in vitro or in vivo, respectively, Nude or NSG mice were injected subcutaneously with cells in mammosphere media mixed 1:1 with Matrigel. 8 μg/ml of 17-beta estradiol was administered in drinking water or 90-day slow release estrogen pellets were implanted sub-cutaneously into mice two days before cell injection (0.72 mg, Innovative Research of America). Serial limiting dilution implantation of MCF-7 cells (10.000, 1.000, 100, 10 cells) and the Extreme Limiting Dilution Analysis (ELDA) software (The Walter and Eliza Hall Institute of Medical Research) were used to perform calculations (95% CI) of tumor initiation. Positive tumor growth was assessed at day 60 or 90 after cell injection by determining the mice bearing a tumor greater than 100 mm^3 and is represented as mice positive for growth/mice tested (n=4 per condition in all experiments). p values were calculated with Chi-squared test.

MCF-7 cells = assay: In vivo tumor initiation of pre-treated MCF-7 cells (limiting dilution, ELDA); settings: for in vivo tumor initiation capacity: 6 days in vitro pre-treatment, 100,000 MCF-7 cells, Nude mice, day 90; for enrichment in tumor-initiating cell frequency (ELDA): MCF-7 pre-treated six days, limiting dilution in NSG mice, day 60
Protocol: as §3, with “Serial limiting dilution implantation of MCF-7 cells (10.000, 1.000, 100, 10 cells) and the Extreme Limiting Dilution Analysis (ELDA) software (The Walter and Eliza Hall Institute of Medical Research) were used to perform calculations (95% CI) of tumor initiation.” left out

Structure (SMILES)	proliferation marker Ki67 [1]	tumor growth [1]	ER and PR protein expression levels [1]	endocrine stimulated BCSC activity (MFE and Aldefluor activity) ([2]; RO4929097 3 mg/kg/day oral with tamoxifen or fulvestrant)	tumor-initiating capacity in secondary mouse hosts [3]	stimulation of tumorigenicity following in vivo tamoxifen and fulvestrant treatment ([3]; combination with RO4929097)	enrichment in tumor-initiating cell frequency following tamoxifen or fulvestrant pre-treatment (MCF-7 cells; co-treatment with RO4929097 10 μM)	BCSC activity measured by MFE and ALDH enzymatic activity [2]	in vivo tumor initiation capacity (MCF-7 cells)	enrichment in tumor-initiating cell frequency (ELDA) (MCF-7 cells) [fold]	PR expression ([1]; HBC×34 (early BC) PDX)
CC(C)(C(=O)NCC(F)(F)C(F)(F)F)C(=O)N[C@@H]1C(=O)Nc2ccccc2-c2ccccc21 [RO4929097]	no impact	no impact	not modified	significantly inhibited	significantly reduced	completely reversed	reversed	–	–	–	–
C[C@]12CC[C@@H]3c4ccc(O)cc4C[C@@H](CCCCCCCCC[S+]([O-])CCCC(F)(F)C(F)(F)F)[C@H]3[C@@H]1CC[C@@H]2O (stereo partly drawn) [fulvestrant]	decrease; also recorded: reduced	reduced	reduced	–	stimulation of tumorigenicity	–	–	paradoxical increase; also recorded: increasing	enriched	11	–
CC/C(=C(\c1ccccc1)c1ccc(OCCN(C)C)cc1)c1ccccc1 [tamoxifen, (Z)-2-[4-(1,2-diphenylbut-1-enyl)phenoxy]-N,N-dimethylethanamine]	decrease; also recorded: reduced	reduced	–	–	stimulation of tumorigenicity	–	–	paradoxical increase; also recorded: increasing	enriched	11	down-regulated
